Measurements as given in PMC12263422, “Cryo-EM structure of the human THIK-1 K2P K^+ channel reveals a lower Y gate regulated by lipids and anesthetics” (Nature Structural & Molecular Biology, 2025).
Where a chain is given by its changes, count along the chain named. Several values for one entry are separate records, joined by “and”; a condition that tells them apart may be missing. Equal entries are not always repeated.

Assays:
Type in all cases: cell-based
[1] = target: T1, THIK-1 R92A (Homo sapiens, UniProt Q9HB14, R92A); assay: Inside-out excised patch recordings, oocytes, THIK-1 R92A mutant (lipid activation); details: THIK-1 R92A
T1 construct: expressed in transfected cells; host or cells: Xenopus oocytes (mRNA injection)
T1 sequence (Q9HB14 1-408 R92A): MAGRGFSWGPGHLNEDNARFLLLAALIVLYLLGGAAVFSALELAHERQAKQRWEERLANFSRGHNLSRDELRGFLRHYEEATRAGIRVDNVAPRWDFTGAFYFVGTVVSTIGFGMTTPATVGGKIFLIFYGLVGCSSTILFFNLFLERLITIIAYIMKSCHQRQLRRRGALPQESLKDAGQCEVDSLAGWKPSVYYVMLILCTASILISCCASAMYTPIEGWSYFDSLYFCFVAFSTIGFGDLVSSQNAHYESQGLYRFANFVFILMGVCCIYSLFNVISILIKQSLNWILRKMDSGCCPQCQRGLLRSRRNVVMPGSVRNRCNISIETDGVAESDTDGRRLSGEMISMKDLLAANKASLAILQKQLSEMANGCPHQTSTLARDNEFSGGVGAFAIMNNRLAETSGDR
Description: (§1) Human K2P13.1 THIK-1 (GenBank accession number: NM_022054) and human K2P12.1 THIK-2 (NM_022055.1) were used in this study. For functional expression studies, the respective K^+ channel subtype coding sequences were subcloned into the oocyte expression vector pSGEM or the dual-purpose expression vector pFAW[41] and verified by sequencing. All mutant channels were obtained by site-directed mutagenesis and verified by sequencing. To increase surface expression and macroscopic currents, measurements of THIK-2 channels used a mutated ER retention motif, (R11A R12A R14A R15A R16A; THIK-2*)[20]. Vector DNA was linearized with NheI or MluI, and mRNA was synthesized in vitro using the SP6 or T7 AmpliCap Max High Yield Message Maker Kit (Cellscript, USA) or HiScribe T7 ARCA mRNA Kit (New England Biolabs).
(§2) Two-electrode voltage–clamp (TEVC) studies were performed in Xenopus oocytes. All animal use conformed to the Guide for the Care and Use of Laboratory Animals (NIH Publication 85–23), and all experiments using Xenopus toads were approved by the local ethics panels. Oocytes were stored at 17 °C in ND96 recording solution composed of (in mM): 96 NaCl, 2 KCl, 1.8 CaCl2, 1 MgCl2, 5 HEPES (pH 7.5 adjusted with NaOH and HCl), supplemented with Na-pyruvate (275 mg L^–1), theophylline (90 mg L^–1) and gentamicin (50 mg L^–1). Oocytes were injected with 1 ng mRNA for WT or mutant channels, and were incubated for 24–48 h at 17 °C. Two-electrode voltage clamp recordings were then performed as previously described[42],[43]. For macroscopic patch–clamp measurements, oocytes were obtained as described above incubated at 17 °C in a solution containing (mM): 54 NaCl, 30 KCl, 2.4 NaHCO3, 0.82 MgSO4 ×7 H2O, 0.41 CaCl2, 0.33 Ca(NO3)2 ×4 H2O and 7.5 TRIS (pH 7.4 adjusted with NaOH and HCl) for 1–4 days before use. Excised patch recordings in inside-out configuration conditions were performed at room temperature. Patch pipettes were made from thick-walled borosilicate glass GB 200TF-8P (Science Products), had resistances of 0.2–0.5 MΩ (tip diameter, 10–25 µm) and filled with a pipette solution (in mM): 120 KCl, 10 HEPES and 3.6 CaCl2 (pH 7.4 adjusted with KOH and HCl). Intracellular bath solutions and compounds were applied to the cytoplasmic side of excised patches for the various K^+ channels through a gravity flow multi-barrel pipette system. The intracellular solution had the following composition (in mM): 120 KCl, 10 HEPES, 2 EGTA and 1 pyrophosphate (pH adjusted with KOH and HCl). Currents were recorded with an EPC10 amplifier (HEKA Electronics) and sampled at 10 kHz or higher, with filtering set to 3 kHz (–3 dB) or higher, as appropriate for sampling rate. For measurements of GPCR activation, whole-cell currents were recorded for THIK-1 in transiently transfected HEK-293 cells. Cells were stimulated by a ramp protocol between −100 and +60 mV (holding potential, −80 mV). The pipette solution was composed of (in mM): 140 KCl, 2 MgCl2, 1 CaCl2, 2.5 EGTA and 10 HEPES (pH 7.3 adjusted with KOH and HCl). The extracellular bath solution had the following composition (in mM): 135 NaCl, 5 KCl, 2 MgCl2, 2 CaCl2, 10 glucose and 10 HEPES pH (pH 7.3 adjusted with NaOH and HCl). Oxotremorine M (Oxo-M) was added to extracellular bath solution to obtain the final concentration. Single-channel currents were recorded with an Axopatch 200B amplifier through a Digidata 1440A digitizer (Molecular Devices). Data were filtered at 2 kHz and recorded at a 200-kHz sampling rate with the program Clampex (Molecular Devices). Pipette solution and bath solution for cell-attached recordings contained (in mM): 140 KCl, 2 MgCl2, 1 CaCl2 and 10 HEPES (pH 7.4 adjusted with KOH and HCl). For inside-out recordings, the bath solution contained (in mM): 140 KCl, 2 MgCl2, 1 CaCl2 and 10 HEPES (pH 7.2 adjusted with KOH and HCl). All experiments were conducted at room temperature. […]

[2] = target: T2, THIK-1 F262A (Homo sapiens, UniProt Q9HB14, F262A); assay: Inside-out excised patch recordings, oocytes, THIK-1 F262A mutant (lipid activation); details: THIK-1 F262A
T2 construct: expressed in transfected cells; host or cells: Xenopus oocytes (mRNA injection)
T2 sequence (Q9HB14 1-408 F262A): T1 sequence (Q9HB14 1-408 R92A) with A92R, F262A
Description: as §1, §2

[3] = target: T3, Human K2P13.1 THIK-1 (WT) (Homo sapiens, UniProt Q9HB14); assay: Macroscopic inside-out excised patch recordings from Xenopus oocytes expressing WT THIK-1; compounds applied to the intracellular side; details: for extent of activation by oleoyl-CoA: 5 µM oleoyl-CoA; for Fold activation: 5.0 µM oleoyl-CoA
T3 construct: expressed in transfected cells; host or cells: Xenopus oocytes (mRNA injection)
T3 sequence (Q9HB14 1-408): T1 sequence (Q9HB14 1-408 R92A) with A92R
Description: as §1, §2

Structure (SMILES): CCCCCCCC/C=C\CCCCCCCC(=O)SCCNC(=O)CCNC(=O)[C@H](O)C(C)(C)COP(=O)(O)OP(=O)(O)OC[C@H]1O[C@@H](n2cnc3c(N)ncnc32)[C@H](O)[C@@H]1OP(=O)(O)O [oleoyl-CoA]
- Fold activation with 5.0 µM oleoyl-CoA ([1]; individual recordings): 19.660 and 15.940 and 13.100 and 29.730 and 21.570 and 18.010
- Fold activation with 5.0 µM oleoyl-CoA ([1]; mean): 19.67
- Fold activation with 5.0 µM oleoyl-CoA ([2]; individual recordings): 16.700 and 14.500 and 16.910 and 15.530 and 18.460 and 22.210
- Fold activation with 5.0 µM oleoyl-CoA ([2]; mean): 17.39
- extent of activation by oleoyl-CoA ([3]; WT): 14 ± 1 fold
- extent of activation by oleoyl-CoA ([3]; WT preinhibited with halothane (15.2 mM)): 8 ± 2 fold
- Fold activation ([3]; WT, Halothane pre-inhibited (15.2 mM halothane), individual recordings): 8.238 and 0.783 and 13.259 and 5.975 and 16.259 and 6.147 and 12.474 and 4.311
- Fold activation ([3]; WT, Halothane pre-inhibited (15.2 mM halothane), mean): 8.43
- Fold activation ([3]; WT, absence of halothane, mean): 13.60
- Fold activation with 5.0 µM oleoyl-CoA ([3]; THIK-1 WT, mean): 13.60
